# Measured values as given in patent EP2841543B1, “IMPROVEMENTS RELATING TO FABRIC FRESHNESS” (Unilever PLC, priority 2012, dated 2013).
# Assay: Production and decomposition of squalene hydroperoxides with Rose Bengal and metal ion catalyst, monitored by HPLC
# Procedure: Aldrich), 10 ml of acetone and 200 µl of Rose Bengal solution (2 mg/ml). Rose Bengal (4,5,6,7-tetrachloro-2',4',5',7'-tetraiodofluorescein) is a singlet-oxygen photobleach. Air was bubbled through the solution over the whole of the 3 hour monitoring period without the metal ion catalyst, under irradiation by a xenon lamp to simulate day-light. […] The reaction monitored by HPLC using via UV. detection at 230 nm and 260 nm and actonitrile was the mobile phase. The first HPLC measurement taken was at t=0 (before addition of Rose Bengal). Typically the squalene peak was eluted at 15 minutes, and the hydroperoxides eluted at times between 2-10 minutes. For the purpose of the experiment the hydroperoxide peaks at 3 and 5.7 minutes after starting the column were monitored for any change in relative peak height.
# [1] = time 1.5 h, RB None, IronMeN4py Yes (5 mg catalyst added after 90 minutes)
# [2] = time 1.0 h, RB Yes, IronMeN4py None, squalene in acetone, air, xenon lamp, 10 °C
# [3] = time 3.0 h, RB Yes, IronMeN4py None, squalene in acetone, air, xenon lamp, 10 °C
SMILES,Relative Peak Height at t=3 minutes [1],Relative Peak Height at t=5.7 minutes [1],Relative Peak Height at t=3 minutes [2],Relative Peak Height at t=5.7 minutes [2],Relative Peak Height at t=3 minutes [3],Relative Peak Height at t=5.7 minutes [3]
"CC(c1ccccn1)(c1ccccn1)N(Cc1ccccn1)Cc1ccccn1.[Cl-].[Cl-].[Fe+2] [IronMeN4py, iron(II) N,N-bis(pyridine-2-yl-methyl)-1,1-bis(pyridine-2-yl)-1-aminoethane dichloride]",0,300,,,,
"O=C1OC2(c3cc(I)c(O)c(I)c3Oc3c2cc(I)c(O)c3I)c2c(Cl)c(Cl)c(Cl)c(Cl)c21 [RB, 4,5,6,7-tetrachloro-2',4',5',7'-tetraiodofluorescein]",,,600,2100,2000,2100
